Data taken from patent publication US7342028B2, “Medical use for tachykinin antagonists” (Glaxo Group Limited, priority 1991, dated 2008).

Tests used:
[1] = system: emesis induced by ipecacuanha; assay: ipecacuanha-induced emesis, test compound given simultaneously with the emetogen; type: in vivo, ferret; conditions: compound 3 mg/kg i.p. simultaneously with ipecacuanha 2 mg/kg p.o.
[2] = system: cisplatin-induced emesis; assay: cisplatin-induced emesis in the ferret; type: in vivo; conditions: for anti-emetic activity: inhibition of cisplatin-induced emesis: cisplatin 200 mg/m^2 i.p., compound 3 mg/kg i.p. at first retch
Method: In this model of emesis the onset of retching and vomiting occurs approximately 1 hour after the administration of cisplatin (200 mg/m^2 i.p.). At the first retch in response to cisplatin, the test compound was administered (e.g. i.p., p.o., i.v., s.c., i.c.v.) and its effect on emesis determined by comparison with appropriate controls (e.g. water).

[3] = system: emesis induced by cyclophosphamide; assay: cyclophosphamide-induced emesis, test compound given simultaneously with the emetogen; type: in vivo, ferret; conditions: compound 3 mg/kg i.p. simultaneously with cyclophosphamide 200 mg/kg i.p.
[4] = system: emesis induced by copper sulphate; assay: copper sulphate-induced emesis, test compound given simultaneously with the emetogen; type: in vivo, ferret; conditions: compound 3 mg/kg i.p. simultaneously with copper sulphate 40 mg/kg i.p.
[5] = system: emesis induced by morphine; assay: morphine-induced emesis, test compound given simultaneously with the emetogen; type: in vivo, ferret; conditions: compound 3 mg/kg i.p. simultaneously with morphine 0.5 mg/kg s.c.
[6] = biological target: NK1 receptor (Homo sapiens, UniProt P25103); assay: NK1 receptor antagonist activity (enantiomer comparison); conditions: relative to the (2S,3S) enantiomer
Sequence of NK1 receptor (P25103 whole entry, species assumed): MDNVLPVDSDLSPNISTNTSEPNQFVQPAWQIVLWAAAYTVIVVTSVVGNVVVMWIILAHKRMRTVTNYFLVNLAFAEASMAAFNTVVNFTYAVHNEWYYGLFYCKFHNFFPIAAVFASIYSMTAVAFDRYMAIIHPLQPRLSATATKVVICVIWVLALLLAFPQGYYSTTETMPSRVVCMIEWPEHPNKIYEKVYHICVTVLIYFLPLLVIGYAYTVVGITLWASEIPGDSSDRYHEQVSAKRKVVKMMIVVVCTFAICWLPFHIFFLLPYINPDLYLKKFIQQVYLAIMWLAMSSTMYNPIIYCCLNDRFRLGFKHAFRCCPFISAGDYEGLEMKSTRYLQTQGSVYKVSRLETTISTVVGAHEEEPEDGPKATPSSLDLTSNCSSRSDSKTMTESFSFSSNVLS

COc1ccccc1CN[C@H]1CCCN[C@H]1c1ccccc1 (racemic) [(±) cis-3-(2-methoxybenzylamino)-2-phenyl piperidine]
anti-emetic activity against ipecacuanha [1]: exhibited anti-emetic activity
anti-emetic activity: inhibition of cisplatin-induced emesis [2]: exhibited anti-emetic activity
anti-emetic activity against cyclophosphamide [3]: exhibited anti-emetic activity
anti-emetic activity against copper sulphate [4]: exhibited anti-emetic activity
anti-emetic activity against morphine [5]: exhibited anti-emetic activity

COc1ccccc1CN[C@H]1CCCN[C@H]1c1ccccc1 (relative stereo) [(2R,3R) enantiomer, cis-3-(2-methoxybenzylamino)-2-phenyl piperidine]
anti-emetic activity: inhibition of cisplatin-induced emesis ([2]; 3 mg/kg): inactive
fold less active as an NK1 receptor antagonist than the (2S,3S) enantiomer [6]: 1000 fold

COc1ccccc1CN[C@H]1CCCN[C@H]1c1ccccc1 (relative stereo) [(2S,3S) enantiomer, cis-3-(2-methoxybenzylamino)-2-phenyl piperidine]
anti-emetic activity: inhibition of cisplatin-induced emesis ([2]; 3 mg/kg): inhibited

COc1ccccc1CNC1C2CCN(C2)C1C(c1ccccc1)c1ccccc1 (stereo not drawn) [Example 1, (exo,exo)-2-(Diphenylmethyl)-N-[(2-methoxyphenyl)methyl]-1-azabicyclo[2.2.1]heptan-3-amine]
inhibition of cisplatin-induced emesis ([2]; compound 5 mg/kg i.p.): inhibited
